Oligonucleotides are written 5' to 3', each unit as a sugar letter and its base; * is a phosphorothioate linkage, no mark a phosphodiester; rarer units and linkages stand in square brackets, end groups in braces. Plain capitals give the bases only. d = 2'-deoxy (DNA); {P} = phosphate
Assays:
[1] = tested on: normal neonatal human fibroblasts; assay: FACS analysis of normal neonatal fibroblasts; type: cell-based; settings: 40 μM; for S-phase checkpoint: within 24 hours
Procedure: The averages and standard deviations presented in FIGS. 32A–32D were determined from triplicate samples. One representative experiment of three is presented. […] Control 11-base oligonucleotides complementary (11mer-2) or unrelated (11mer-3) to the telomere overhang had no effect on the cells.

telomere length = assay: Mean telomere length in fibroblasts; type: cell-based, human; settings: for MTL values: 40 μM, 5 days (diluent 10.59)
Procedure: Cells were plated at a density of 180,000 cells/ml in RPMI 1640 medium supplemented with 3% FBS. Cells were treated with 40 μM of either of the oligonucleotides for 72 hours. Cells were then collected, washed and fixed for 30 minutes in 4% paraformaldehyde and then permeabilized with 0.1% Triton X-100 for 2 minutes. The TUNEL assay was carried out with components and instructions of the In Situ Cell Death Detection Kit using fluorescein-labeled dUTP from Boehringer Mannheim. TUNEL-positive cells were detected by FACS analysis and confocal microscopy. Cellular Uptake of Oligonucleotides For confocal analysis, Jurkat cells were plated on Permanox chamber slides (Lab-Tek, Naperville, Ill.) and treated for 4 hours with fluorescein phosphoramidite (FAM)-labeled oligonucleotides (Research Genetics, Inc., Huntsville, Ala.). Adherent cells were fixed in 4% paraformaldehyde in PBS, stained with propidium iodide (PI) to identify nuclei, mounted with Slowfade reagent (Molecular Probes, Eugene, Oreg.), covered with a coverslip and stored at 4° C. in the dark. Uptake of the oligonucleotides was assessed in 5–10 μm sections with a Carl Zeiss LSM 510 confocal laser microscope. Computer images assign green to the FAM-oligonucleotides, red to PI, and yellow to co-localization of the signals. FACS analysis was performed on Jurkat cells identically treated with the FAM-oligonucleotides for 4 hours, then fixed in 0.5 ml of 4% paraformaldehyde overnight at 4° C. Fluorescence was measured on the FL-1 channel. Western Blot Analysis and Antibodies Western blot analysis was performed as previously described [Eller, M. S., et al., (1996), Proc Natl Acad Sci USA 93, 1087–1092]. Antibody Ab-6 (DO-1 clone, Oncogene Research Products, Cambridge, Mass.) detected p53; antibody KH95 (Santa Cruz Biotechnology, Inc., Santa Cruz, Calif.) detected E2F1; antibody Ab-4 (Oncogene Research products) detected p73. Phospho-p53 (serine 15) was detected using the #9284 polyclonal antibody and phospho-p95/Nbs1 (serine 343) was detected by a phospho-p95/Nbs1-specific polyclonal antibody, both antibodies from Cell Signaling Technology (Beverly, Mass.). p95/Nbs1 antibody (#NB-100-143, Novus Biologicals, Littleton, Colo.) and an actin antibody (I-19, Santa Cruz Biotechnology, Santa Cruz, Calif.) were also used. […] After the indicated times, total protein was collected and analyzed by 8% PAGE and western blot using a polyclonal antibody to p95/Nbs1 (#NB-100-143, Novus Biologicals, Littleton, Colo.). […] Telomere length was determined essentially as described by van Steensel and de Lange (van Steensel, B. and T. de Lange. 1997, Nature 385: 740–743) using the Telo TAGGG Telomere Length Assay from Roche Molecular Biochemicals (Indianapolis, Ind.) and the protocol supplied by the manufacturer. […]

[2] = tested on: Human squamous carcinoma cell line SCC12F cells; assay: Cell growth / cell yield of SCC12F cells (Coulter counter); type: cell-based; settings: for reduction of cell number: after 2 days, FIG. 14
Procedure: Human squamous carcinoma cell line SCC12F cells were maintained in primary keratinocyte medium (300 ml DME, 100 ml F-12 nutrient supplement, 50 ml 10× adenine, 50 ml fetal bovine serum, 5 ml penicillin/streptomycin stock, and 0.5 ml of 10 μg/ml epidermal growth factor and hydrocortisone to final concentration of 1.4 μg/ml) and dosed with either water (diluent), 100 μM pTpT (T2, Midland Certified Reagent Company, Midland, Tex.) or 100 μM pdApdA (A2). Cells were harvested before dosing (day 0), and 1, 3, 4, and 5 days after dosage, and were counted by Coulter™ counter. After harvesting, the cells were processed for total RNA isolation and were analyzed by Northern blot. Addition of a control deoxyadenine dinucleotide (pdApdA), a compound very similar to pTpT but not readily dimerized by UV irradiation, and therefore rarely excised during the course of UV-induced DNA repair, has no effect.
In a second experiment, SCC12F cells were cultured as described above. Two or three days after seeding, the preconfluent cultures were given fresh medium supplemented with either 100 μM T2 or diluent as a control. Cells were collected daily by trypsinization and counted by Coulter™ counter. The cell yield in cultures treated with T2 was reduced by […] compared to that of paired control cultures after five days (FIG. 2). This corresponds to 2.3 population doublings in this time for control cells, compared with 1 doubling for T2-treated cells.
pTpT was previously found to inhibit cell cycle progression, at least in part through activation of p53 and subsequent upregulation of the cyclin dependent kinase inhibitor p21. Cultures of the human keratinocyte line SCC12F were treated with pTpT, SEQ ID NO: 1, SEQ ID NO: 6 or diluent alone as a negative control, collected and counted 48 hours later and processed for northern blot analysis of p21 mRNA expression. […] Thus, the sequences of the present invention activate p53 and inhibit cell proliferation similar to the effect of pTpT.
Exposure of keratinocytes to UVB irradiation affects the expression of genes involved in cell cycle arrest, DNA repair and cytokine production. Single-stranded oligonucleotides sharing sequence homology with the telomere 3′ overhang, when introduced into cells, mimic these UV effects. To identify other genes that may be similarly modulated, cells of keratinocyte origin (SCC12F; a human epidermal squamous cell carcinoma line provided by Dr. James Rheinwald of Harvard University) were exposed to solar simulated irradiation (SSR) (20 mJ/cm^2, measured at 285±5 nm), to an 11-base oligonucleotide (pGTTAGGGTTAG; SEQ ID NO:5) homologous to the telomere overhang (T-oligo), or to a complementary sequence as control [pCTAACCCTAAC; (SEQ ID NO:9) control oligonucleotide]. […] These are mitochondrial-transcribed genes whose encoded proteins participate in cellular respiration.

| Substance | S-phase checkpoint [1] | MTL values (telomere length) [kilobases] | reduction of cell number [2] | further results |
| --- | --- | --- | --- | --- |
| pCTAACCCTAAC (DNA, 5' {P}, backbone not given here) [SEQ ID NO: 9, reference compound] | had no effect | 10.45 | – | – |
| pGAGTATGAG (DNA, 5' {P}, backbone not given here) [SEQ ID NO: 1] | – | – | approximately 50% | – |
| pGATCGATCGAT (DNA {P}-dGdAdTdCdGdAdTdCdGdAdT) [SEQ ID NO: 10, reference compound] | had no effect | 10.22 | – | – |
| pGTTAGGGTTAG (DNA {P}-dGdTdTdAdGdGdGdTdTdAdG) [SEQ ID NO: 5] | activation of an S-phase checkpoint | 12.25 | – | apoptotic cells ([1]; up to 72 hours): no apoptotic cells were detected; cellular proliferation ([2]; Example 27): substantially inhibited cellular proliferation; increase in MTL (telomere length; 5-day experiment): approximately 20% |
| thymidine dinucleotide [pTpT] | – | – | 40% | cell yield reduced compared to paired control cultures ([2]; 100 μM, after five days): 75%; cell growth rate ([2]; 100 μM, days 1, 3, 4, 5 after dosage): marked decreases in cell growth rate; population doublings ([2]; 100 μM, five days (control 2.3)): 1 |
